This passage reports IC50 results from patent US5214056A, “1,3,2-dioxathiolane oxide derivative” (Japan Tobacco Inc., priority 1989, dated 1993).

For one test, the target named is T1, cathepsin B (Bos taurus, UniProt P07688).
T1 construct: purchased Sigma Co
Nature of the test: Cathepsin B inhibition activity in in-vitro system. The test is classed as biochemical. The following applies: cathepsin B (Sigma), benzoyl-(phenylalanyl-alginyl)-4-methyl-coumarinamide substrate, pH 6.0, 30° C. for 20 minutes; read-out: 50% inhibition concentration IC50. The method, then:
In this experiment, a 100-mM sodium phosphate buffer solution (pH=6.0; containing 1.33-mM EDTA Na2) was used as the buffer solutions for solution preparation.
A solution mixture consisting of the following components was prepared.
The above buffer solution; 850 μl
A 20-μM solution obtained by dissolving the compound of the present invention in the above buffer solution; 50 μl
A solution obtained by dissolving cathepsin B (available from Sigma Co.) in the above buffer solution to have a concentration of 0.5 mg/ml; 50 μl
50 μl of a 200-μM solution obtained by dissolving benzoyl-(phenylalanyl-alginyl)-4-methyl-coumarinamide in the above buffer solution were added to the above solution mixture, and the resultant solution was incubated at 30° C. for 20 minutes.
After the incubation, the reaction solution mixture was cooled in an ice bath to stop the reaction. After 20 minutes elapsed, the fluorescence intensity (b1) at an excitation wavelength of 370 nm and an emission wavelength of 440 nm was measured. At the same time, an experiment was performed using the above buffer solution in place of the solution of cathepsin B in the above system, and fluorescence intensity (b2) was measured following the same procedures as described above. In addition, an experiment was performed using the above buffer solution in place of the buffer solution of the compound of the present invention, and fluorescence intensity (b3) was measured following the same procedures as described above.
An inhibition ratio was calculated in accordance with the following equation: [formula] and a concentration (IC50) required for 50% inhibition was calculated by using a semilogarithmical graph.

The target of test [1] is T2, Purified calpain (CANP) sampled from a rat brain (Rattus norvegicus, UniProt Q07009).
T2 construct: sampled from a rat brain; from tissue; host or cells: rat brain
T2 sequence (Q07009 1-700): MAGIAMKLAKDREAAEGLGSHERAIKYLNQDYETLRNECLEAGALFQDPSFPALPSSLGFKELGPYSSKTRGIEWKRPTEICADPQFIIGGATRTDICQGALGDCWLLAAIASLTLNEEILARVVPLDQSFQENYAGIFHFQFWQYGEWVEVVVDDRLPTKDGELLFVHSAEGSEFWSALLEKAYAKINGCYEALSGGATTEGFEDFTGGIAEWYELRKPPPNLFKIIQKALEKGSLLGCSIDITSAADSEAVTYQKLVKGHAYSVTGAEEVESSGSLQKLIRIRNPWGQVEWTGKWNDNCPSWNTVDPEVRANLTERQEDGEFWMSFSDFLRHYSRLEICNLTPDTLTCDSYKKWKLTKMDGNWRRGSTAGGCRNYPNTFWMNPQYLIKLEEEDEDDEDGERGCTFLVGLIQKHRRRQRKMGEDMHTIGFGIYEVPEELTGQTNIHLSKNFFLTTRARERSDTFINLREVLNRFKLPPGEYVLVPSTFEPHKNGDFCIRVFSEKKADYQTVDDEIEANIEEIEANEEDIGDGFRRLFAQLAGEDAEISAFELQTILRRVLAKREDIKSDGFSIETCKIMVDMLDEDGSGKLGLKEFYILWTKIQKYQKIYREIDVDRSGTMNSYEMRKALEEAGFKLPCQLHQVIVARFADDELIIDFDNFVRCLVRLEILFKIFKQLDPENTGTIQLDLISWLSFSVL
T2 sequence (Q64537 1-270 partner): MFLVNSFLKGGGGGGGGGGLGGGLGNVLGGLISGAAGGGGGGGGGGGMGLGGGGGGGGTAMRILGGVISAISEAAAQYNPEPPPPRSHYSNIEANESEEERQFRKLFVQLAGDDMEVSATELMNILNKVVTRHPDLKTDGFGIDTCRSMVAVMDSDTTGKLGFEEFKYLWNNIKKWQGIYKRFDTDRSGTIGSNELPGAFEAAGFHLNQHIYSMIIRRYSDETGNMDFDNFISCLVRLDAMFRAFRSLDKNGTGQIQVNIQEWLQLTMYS
The experiment in a line: CANP inhibition activity in in vitro system. The test is classed as biochemical. The following applies: N,N-dimethylcasein substrate, 30° C. for 20 minutes, pH 7.4, read-out: 50% inhibition concentration IC50. The method, then:
A solution mixture consisting of the following com-ponents was prepared.
A 167-mM Tris hydrochloric acid buffer solution (pH=7.4) (containing 15-mM mercaptoethanol); 40 μl
A solution obtained by dissolving the compound [I] of the present invention in the same Tris hydrochloric acid buffer solution as described above; 40 μl
Purified calpain [obtained by a method described in J. Biol. Chem., 239, 149 (1964)] sampled from a rat brain and dissolved in a 50-mM sodium acetic acid buffer solution (pH=6.0; containing 1-mM EDTA and 5-mM mercaptoethanol) 11 units/ml; 200 μl
An N,N-dimethylcasein solution (pH=7.0)
40 μl of a 167-mM Tris hydrochloric acid buffer solution (pH=7.4) containing 50-mM CaCl2 were added to the above solution mixture, and the resultant solution was incubated at 30° C. for 20 minutes. After the incubation, 320 μl of 10% (W/V) trichloroacetic acid were added to stop the reaction, and the resultant solution was left to stand in an ice bath for one hour. Thereafter, the solution was subjected to centrifugal separation (16,100×g, five minutes), and 600 μl of the supernatant were sampled to measure absorbance (a1) at 280 nm.
In another step, absorbance (a2) was obtained by performing an experiment and measurement following the same procedures as described above except that a 167-mM Tris hydrochloric acid buffer solution (pH=7.4; containing 15-mM mercaptoethanol) was used in place of the 167-mM Tris hydrochloric acid buffer solution containing the compound of the present invention. In addition, absorbance (a3) was obtained by performing an experiment and measurement following the same procedures as described above except that a 167-mM Tris hydrochloric acid buffer solution (pH=7.4; containing 1-mM EDTA) was used in place of the 167-mM tris buffer solution (pH=7.4) containing 50-mM CaCl2.
An inhibition ratio was calculated from the above absorbance values (a1), (a2), and (a3) in accordance with the following equation: [formula]
In addition, a concentration (IC50) required for 50% inhibition was calculated by using a semilogarithmical graph.

Structures are written as SMILES.

Take `CCOC(=O)[C@H]1OS(=O)(=O)O[C@@H]1C(=O)N[C@@H](CC(C)C)C(=O)NCCC(C)C` [Example 4, Ethyl (4S,5S)-5-[(S)-3-methyl-1-(3-methylbutylcarbamoyl)butylcarbamoyl]-1,3,2-dioxathiolane-4-carboxylate-2,2-dioxide]: the IC50 on cathepsin B is 25 nM; in test [1], 15 µM.

As for `CC(C)CCNC(=O)[C@H](CC(C)C)NC(=O)[C@H]1OS(=O)(=O)O[C@@H]1C(=O)OCc1ccccc1` [Example 11, Benzyl (4S,5S)-5-[(S)-3-methyl-1-(3-methylbutylcarbamoyl)butylcarbamoyl]-1,3,2-dioxathiolane-4-carboxylate-2,2-dioxide], the IC50 on cathepsin B is 9 nM; in test [1] it was 6 µM.

As to `CC(C)CCNC(=O)[C@H](CC(C)C)NC(=O)[C@H]1OS(=O)(=O)O[C@@H]1C(=O)O` [Example 12, (4S,5S)-5[(S)-3-methyl-1-(3-methylbutylcarbamoyl)butylcarbamoyl]-1,3,2-dioxathiolane-4-carboxy-2,2-dioxide], the IC50 was found to be 0.7 nM at cathepsin B and 0.3 µM in test [1].

As for `CCCCN(CCCC)C(=O)[C@H](CC(C)C)NC(=O)[C@H]1OS(=O)(=O)O[C@@H]1C(=O)OCC` [Example 14], the IC50 on cathepsin B was determined as 15 nM.

For `CCOC(=O)[C@H]1OS(=O)(=O)O[C@@H]1C(=O)N[C@@H](CC(C)C)C(=O)NCc1ccccc1` [Example 16, Ethyl (4S,5S)-5-[(S)-1-benzylcarbamoyl-3-methylbutylcarbamoyl]-1,3,2-dioxathiolane-4-carboxylate-2,2-dioxide], the IC50 at cathepsin B turned out to be 3 nM.

For `CC(C)CC(NC(=O)C1OC1C(=O)O)C(=O)NCCCCNC(=N)N` (stereo not shown) [Example E-64, E-64, reference compound], the values for the IC50 (on cathepsin B; in test [1]) were 35 nM and 7 µM, respectively.
